Data reported in PubChem BioAssay (NCI).
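Grown in 96-well plates, cells were treated for 48 hours with each compound at five concentrations. Insufficient inhibition: endpoint recorded as highest concentration tested. GI50: concentration for 50% inhibition of growth. At the TGI there is no net growth.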

How the values were obtained:
Assay in all cases: NCI-60 cell line screen, 48 h
[1] = test system: 786-0 renal
[2] = test system: A498 renal
[3] = test system: A549 NSCLC
[4] = test system: ACHN renal
[5] = test system: BT-549 breast
[6] = test system: CAKI-1 renal
[7] = test system: CCRF-CEM leukemia
[8] = test system: DU-145 prostate
[9] = test system: EKVX NSCLC
[10] = test system: HCC-2998 colon
[11] = test system: HCT-116 colon
[12] = test system: HCT-15 colon
[13] = test system: HL-60(TB) leukemia
[14] = test system: HOP-62 NSCLC
[15] = test system: HOP-92 NSCLC
[16] = test system: HT29 colon
[17] = test system: K-562 leukemia
[18] = test system: KM12 colon
[19] = test system: LOX IMVI melanoma
[20] = test system: M14 melanoma
[21] = test system: MDA-MB-231 breast
[22] = test system: MDA-MB-435
[23] = test system: NCI-H226 lung
[24] = test system: NCI-H23 lung
[25] = test system: NCI-H460 lung
[26] = test system: NCI-H522 lung
[27] = test system: NCI/ADR-RES ovarian
[28] = test system: OVCAR-3 ovarian
[29] = test system: OVCAR-4 ovarian
[30] = test system: OVCAR-5 ovarian
[31] = test system: OVCAR-8 ovarian
[32] = test system: PC-3 prostate
[33] = test system: RPMI-8226 leukemia
[34] = test system: RXF 393 renal
[35] = test system: SF-268 CNS
[36] = test system: SF-295 CNS
[37] = test system: SF-539 CNS
[38] = test system: SK-MEL-2 melanoma
[39] = test system: SK-MEL-28 melanoma
[40] = test system: SK-MEL-5 melanoma
[41] = test system: SK-OV-3 ovarian
[42] = test system: SN12C renal
[43] = test system: SNB-19 CNS
[44] = test system: SNB-75 CNS
[45] = test system: SW-620 colon
[46] = test system: T-47D breast
[47] = test system: TK-10 renal
[48] = test system: U251 CNS
[49] = test system: UACC-257 melanoma
[50] = test system: UACC-62 melanoma
[51] = test system: UO-31 renal
[52] = test system: COLO 205 colon
[53] = test system: MCF7 breast

`COc1cc(OC)c2c(=O)cc(-c3ccccc3OCc3ccccc3)oc2c1OC` showed a GI50 [1] of 5.49 µM, a TGI [1] of 56.4 µM and a GI50 [2] of 9.62 µM. For the same compound, the TGI [2] was 69.9 µM, the GI50 [3] was 63.5 µM and the TGI [3] was over 100 µM. The GI50 [4] was 6.19 µM, the TGI [4] was over 100 µM and the GI50 [5] was 3.76 µM. For the same compound, the TGI [5] was 24.6 µM, the GI50 [6] was 3.21 µM and the TGI [6] was 24.2 µM. It also gave a GI50 [7] of 3.18 µM, a TGI [7] of 67.7 µM and a GI50 [8] of 18.5 µM. For the same compound, the TGI [8] was over 100 µM, the GI50 [9] was 5.54 µM and the TGI [9] was 91.2 µM. For the same compound, the GI50 [10] was 2.39 µM, the TGI [10] was 7.54 µM and the GI50 [11] was 9.22 µM. For the same compound, the TGI [11] was 50.5 µM, the GI50 [12] was 16.2 µM and the TGI [12] was over 100 µM. It also gave a GI50 [13] of over 100 µM, a TGI [13] of over 100 µM and a GI50 [14] of 10.7 µM. It also gave a TGI [14] of 44.4 µM, a GI50 [15] of 2.63 µM and a TGI [15] of 18.6 µM. The GI50 [16] was 28.9 µM, the TGI [16] was over 100 µM and the GI50 [17] was over 100 µM. It also gave a TGI [17] of over 100 µM, a GI50 [18] of 3.25 µM and a TGI [18] of 16.2 µM. For the same compound, the GI50 [19] was 10.2 µM, the TGI [19] was over 100 µM and the GI50 [20] was 7.22 µM. It also gave a TGI [20] of 23.1 µM, a GI50 [21] of 5.6 µM and a TGI [21] of 71.8 µM. The GI50 [22] was 2.68 µM, the TGI [22] was 7.01 µM and the GI50 [23] was 6.25 µM. The TGI [23] was 44 µM, the GI50 [24] was 5.94 µM and the TGI [24] was 23.4 µM. For the same compound, the GI50 [25] was 5.42 µM, the TGI [25] was over 100 µM and the GI50 [26] was 50.7 µM. The TGI [26] was over 100 µM, the GI50 [27] was 2.96 µM and the TGI [27] was 18.6 µM. For the same compound, the GI50 [28] was 4.15 µM, the TGI [28] was 16.5 µM and the GI50 [29] was 6.32 µM. It also gave a TGI [29] of over 100 µM, a GI50 [30] of 18 µM and a TGI [30] of 84.3 µM. For the same compound, the GI50 [31] was over 100 µM, the TGI [31] was over 100 µM and the GI50 [32] was 3.34 µM. For the same compound, the TGI [32] was 32.5 µM, the GI50 [33] was 2.83 µM and the TGI [33] was over 100 µM. The GI50 [34] was over 100 µM, the TGI [34] was over 100 µM and the GI50 [35] was 18.7 µM. For the same compound, the TGI [35] was 73.7 µM, the GI50 [36] was 4.65 µM and the TGI [36] was 26.8 µM. For the same compound, the GI50 [37] was 12.4 µM, the TGI [37] was 40 µM and the GI50 [38] was over 100 µM. The TGI [38] was over 100 µM, the GI50 [39] was 12.7 µM and the TGI [39] was 46.5 µM. For the same compound, the GI50 [40] was 1.84 µM, the TGI [40] was 4.33 µM and the GI50 [41] was 98 µM. For the same compound, the TGI [41] was over 100 µM, the GI50 [42] was 20.4 µM and the TGI [42] was over 100 µM. It also gave a GI50 [43] of 41.7 µM, a TGI [43] of over 100 µM and a GI50 [44] of 61.8 µM. For the same compound, the TGI [44] was over 100 µM, the GI50 [45] was 8.06 µM and the TGI [45] was over 100 µM. It also gave a GI50 [46] of 18.7 µM, a TGI [46] of over 100 µM and a GI50 [47] of 6.56 µM. The TGI [47] was 34.9 µM, the GI50 [48] was 9.59 µM and the TGI [48] was over 100 µM. For the same compound, the GI50 [49] was 6.05 µM, the TGI [49] was 82.1 µM and the GI50 [50] was 4.14 µM. For the same compound, the TGI [50] was 17.7 µM, the GI50 [51] was over 100 µM and the TGI [51] was over 100 µM.
In the case of `CN(C)c1ccc(/C=c2/c3ccccc3n3c2cc(/C=C/c2ccccc2)[n+]3C)cc1`, the TGI [4] is reported as 1.22 µM, the TGI [6] is reported as 51.2 µM and the TGI [7] is reported as 0.0821 µM. It also gave a TGI [52] of 0.315 µM, a TGI [8] of 1.37 µM and a TGI [10] of 1.08 µM. It also gave a TGI [12] of 3.49 µM, a TGI [14] of 1.16 µM and a TGI [17] of over 100 µM. It also gave a TGI [53] of 0.591 µM, a TGI [27] of over 50.6 µM and a TGI [28] of 0.795 µM. It also gave a TGI [29] of 1.86 µM, a TGI [36] of 0.944 µM and a TGI [37] of 0.132 µM. It also gave a TGI [40] of 0.272 µM, a TGI [41] of 1.14 µM and a TGI [46] of 0.123 µM. The TGI [47] was 3.77 µM.
